Results published in BindingDB's records for patent US20250215013 (Impact Therapeutics (Shanghai), 2025).

Assays:
PARP2 = PARP2 (Homo sapiens, UniProt Q9UGN5); assay: PARP1 and PARP2 Chemiluminescent Assay
[1] = target: Poly [ADP-ribose] polymerase 1 (Homo sapiens, UniProt P09874); assay: PARP1 and PARP2 Chemiluminescent Assay
Chain of Poly [ADP-ribose] polymerase 1 (P09874 whole entry): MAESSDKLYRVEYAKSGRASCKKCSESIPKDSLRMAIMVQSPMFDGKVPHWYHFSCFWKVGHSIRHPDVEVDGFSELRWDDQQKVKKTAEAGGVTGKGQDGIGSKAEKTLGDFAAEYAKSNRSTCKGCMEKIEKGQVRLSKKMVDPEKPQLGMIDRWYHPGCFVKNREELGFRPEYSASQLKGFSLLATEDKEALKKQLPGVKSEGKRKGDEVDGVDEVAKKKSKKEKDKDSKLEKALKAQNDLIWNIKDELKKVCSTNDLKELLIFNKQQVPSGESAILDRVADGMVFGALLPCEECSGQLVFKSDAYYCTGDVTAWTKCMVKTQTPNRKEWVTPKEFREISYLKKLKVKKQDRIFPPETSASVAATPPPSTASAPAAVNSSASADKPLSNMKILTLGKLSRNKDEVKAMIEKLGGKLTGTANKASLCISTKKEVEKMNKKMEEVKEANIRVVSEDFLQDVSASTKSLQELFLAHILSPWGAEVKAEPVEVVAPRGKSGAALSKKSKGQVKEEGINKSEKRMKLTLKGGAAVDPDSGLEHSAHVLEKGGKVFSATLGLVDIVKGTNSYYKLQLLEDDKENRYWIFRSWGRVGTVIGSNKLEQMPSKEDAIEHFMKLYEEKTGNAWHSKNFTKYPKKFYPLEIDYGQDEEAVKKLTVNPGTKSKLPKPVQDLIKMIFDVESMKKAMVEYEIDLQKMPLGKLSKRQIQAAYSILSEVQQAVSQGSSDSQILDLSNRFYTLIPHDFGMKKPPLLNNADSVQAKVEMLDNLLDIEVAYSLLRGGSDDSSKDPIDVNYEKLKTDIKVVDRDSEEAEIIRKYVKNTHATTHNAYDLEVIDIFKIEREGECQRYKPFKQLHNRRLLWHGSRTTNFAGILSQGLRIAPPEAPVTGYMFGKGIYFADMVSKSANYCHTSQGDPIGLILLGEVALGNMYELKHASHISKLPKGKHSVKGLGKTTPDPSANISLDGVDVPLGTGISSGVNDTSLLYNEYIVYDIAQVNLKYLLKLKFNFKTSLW

Chain of PARP2 (Q9UGN5 whole entry): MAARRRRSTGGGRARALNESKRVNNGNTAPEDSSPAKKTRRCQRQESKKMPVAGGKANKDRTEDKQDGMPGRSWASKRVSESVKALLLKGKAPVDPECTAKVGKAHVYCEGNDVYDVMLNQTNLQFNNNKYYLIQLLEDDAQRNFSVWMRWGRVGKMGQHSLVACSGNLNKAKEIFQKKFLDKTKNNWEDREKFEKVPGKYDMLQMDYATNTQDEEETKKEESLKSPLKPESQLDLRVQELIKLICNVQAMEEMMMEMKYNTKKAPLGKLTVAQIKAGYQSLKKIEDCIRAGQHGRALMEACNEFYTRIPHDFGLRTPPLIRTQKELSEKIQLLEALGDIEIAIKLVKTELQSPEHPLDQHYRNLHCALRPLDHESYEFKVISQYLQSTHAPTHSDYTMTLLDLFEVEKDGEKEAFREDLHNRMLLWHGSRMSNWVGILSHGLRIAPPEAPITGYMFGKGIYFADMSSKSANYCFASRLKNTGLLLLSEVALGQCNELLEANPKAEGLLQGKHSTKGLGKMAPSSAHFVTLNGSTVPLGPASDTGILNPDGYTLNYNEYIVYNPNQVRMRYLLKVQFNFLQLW

Row | IC50 (PARP2) | IC50 [1] | Structure (SMILES)
1 | > 10000 nM | 2.13 nM | CNC(=O)c1ccc(N2CCN(Cc3ccc4c([nH]c(=O)n5ccnc45)c3F)CC2)c(C)n1 [US20250215013, Example 50]
2 | 1540 nM | 0.4 nM | CNC(=O)c1ccc(N2CCN(Cc3ccc4c([nH]c(=O)c5c(F)cnn54)c3F)CC2)c(F)n1 [US20250215013, Example 188]
